This is an account of results in patent publication US8551999B2, “Heterocyclic compound and pharmaceutical composition thereof” (Otsuka Pharmaceutical Co., Ltd., priority 2007, dated 2013).

On to `Cl.Cn1c(C(=O)N2CCN(Cc3ccc(OCC(F)(F)F)cc3)CC2)cc2ccc(Oc3ccc(NC(=O)c4ccc(C(F)(F)F)nc4)cn3)cc21`, for which the melting point worked out at 195.4 °C.

Take `Br.CN(C(=O)c1ccc(Cl)c(Cl)c1)c1ccc(Oc2ccc3c(c2)cc(C(=O)N2CCN(Cc4ccc5c(c4)OCO5)CC2)n3C)nc1` [Example 6, N-{6-[2-(4-Benzo[1,3]dioxol-5-ylmethylpiperazine-1-carbonyl)-1-methyl-1H-indol-5-yloxy]pyridin-3-yl}-3,4-dichloro-N-methyl-benzamide hydrobromide]: the melting point was 222 to 226 °C.

`Br.Cn1c(C(=O)N2CCN(Cc3ccc4c(c3)OCO4)CC2)cc2cc(Oc3ccc(NC(=O)c4ccc(Cl)c(Cl)c4)cn3)ccc21` [Example 7, N-{6-[2-(4-Benzo[1,3]dioxol-5-ylmethylpiperazine-1-carbonyl)-1-methyl-1H-indol-5-yloxy]pyridin-3-yl}-3,4-dichlorobenzamide hydrobromide] showed a melting point of 264 to 269 °C.

The molecule `Br.Cn1c(C(=O)N2CCN(Cc3ccc4c(c3)OCO4)CC2)cc2cc(Oc3ccc(NC(=O)c4ccc(C(F)(F)F)cc4)cn3)ccc21` [Example 8, N-{6-[2-(4-Benzo[1,3]dioxol-5-ylmethylpiperazine-1-carbonyl)-1-methyl-1H-indol-5-yloxy]pyridin-3-yl}-4-trifluoromethylbenzamide hydrobromide] showed a melting point of 240 to 244 °C.

For the molecule `Br.Cn1c(C(=O)N2CCN(Cc3ccc4c(c3)OCO4)CC2)cc2cc(Oc3ccc(NC(=O)c4ccc(C(F)(F)F)cc4C(F)(F)F)cn3)ccc21` [Example 9, N-{6-[2-(4-Benzo[1,3]dioxol-5-ylmethylpiperazine-1-carbonyl)-1-methyl-1H-indol-5-yloxy]pyridin-3-yl}-2,4-bistrifluoromethyl-benzamide hydrobromide], the melting point was 258 to 261 °C (dec.).

In the case of `Br.Cn1c(C(=O)N2CCN(Cc3ccc4c(c3)OCO4)CC2)cc2cc(Oc3ccc(NC(=O)c4ccc(-n5cccc5)cc4)cn3)ccc21` [Example 11, N-{6-[2-(4-Benzo[1,3]dioxol-5-ylmethylpiperazine-1-carbonyl)-1-methyl-1H-indol-5-yloxy]pyridin-3-yl}-4-pyrrol-1-ylbenzamide hydrobromide], the melting point is 227 to 232 °C (dec.).

The molecule `Br.CN(C(=O)/C=C/c1cc(F)cc(F)c1)c1ccc(Oc2ccc3c(c2)cc(C(=O)N2CCN(Cc4ccc5c(c4)OCO5)CC2)n3C)nc1` [Example 12, (E)-N-{6-[2-(4-Benzo[1,3]dioxol-5-ylmethylpiperazine-1-carbonyl)-1-methyl-1H-indol-5-yloxy]pyridin-3-yl}-3-(3,5-difluorophenyl)-N-methylacrylamide hydrobromide] registered a melting point of 176 to 178 °C.

In turn, `Br.COc1ccc(CN2CCN(C(=O)c3cc4cc(Oc5ccc(NC(=O)c6ccc(C(F)(F)F)cc6C)cn5)ccc4n3C)CC2)cc1` [Example 14, N-(6-{2-[4-(4-Methoxybenzyl)piperazine-1-carbonyl]-1-methyl-1H-indol-5-yloxy}pyridin-3-yl)-2-methyl-4-trifluoromethylbenzamide hydrobromide] came in with a melting point of 249 to 251 °C.

`COc1ccc(CN2CCN(C(=O)c3cc4cc(Oc5ccc(N(C)C(=O)c6ccc(C(F)(F)F)cc6Cl)cn5)ccc4n3C)CC2)cc1.O=C(O)C(=O)O` [Example 16, 2-Chloro-N-(6-{2-[4-(4-methoxybenzyl)piperazine-1-carbonyl]-1-methyl-1H-indol-5-yloxy}pyridin-3-yl)-N-methyl-4-trifluoromethyl-benzamide oxalate] showed a melting point of 163 to 165 °C.

`Br.COc1ccc(CN2CCN(C(=O)c3cc4cc(Oc5ccc(NC(=O)c6ccc(OC(F)(F)F)cc6)cn5)ccc4n3C)CC2)cc1` [Example 17, N-(6-{2-[4-(4-Methoxybenzyl)piperazine-1-carbonyl]-1-methyl-1H-indol-5-yloxy}pyridin-3-yl)-4-trifluoromethoxybenzamide hydrobromide] displayed a melting point of 226 to 227 °C.
